Laboratory results from patent US7399775B2, “β-amyloid protein production/secretion inhibitor” (Daiichi Pharmaceutical Co., Ltd., priority 2001, dated 2008).

Tests used:
[1] = system: β-amyloid protein (Aβ) production/secretion in E35 cells (H4 cells transfected with APP751); experiment: Cell-based assay for inhibition of production or secretion of β-amyloid protein (sandwich ELISA of Aβ in culture medium); parameters: species or system human; conditions: Homo sapiens, 24 h, 24 h with compound, Aβ in medium by sandwich ELISA, read-out: Activity (EC50 class, inhibition of Aβ secreted in culture medium)
Method: Cell-Based Assay for Screening of a Compound Which Inhibits Production or Secretion of β-Amyloid Protein
E35 cells which were established by transfecting APP751 gene which is a wild type human β-amyloid protein precursor into human glioma cells (H4 cells), were used to analyze inhibitory activity of a compound against β-amyloid production. The amount of β protein (Aβ) secreted in a culture medium was measured by the sandwich enzyme-linked imunosorbent assay.
E35 cells were seeded in Dulbecco's Modified Eagle's Medium containing 10% inactivated fetal bovine serum on 96-well plates and cultured in humidified air and 5% CO2 at 37° C. in a CO2 incubator. Twenty-four hours after seeding of the cells, a test compound dissolved in DMSO was added to the medium. The DMSO solution of the compound was prepared so as to give the final concentration of DMSO in the medium 0.05%. The cells were cultured for additional twenty-four hours, and then the cultured medium was collected. The medium collected was applied to a 96-well ELISA plate on which a monoclonal antibody 25-1, which recognized Aβ25-35, was immobilized, followed by the incubation at 4° C. for 16 to 20 hours. After washing with a phosphate buffer (pH 7.4), a biotinylated monoclonal antibody MA32-40, which recognizes Aβ1-8, was added to the plate, and the plate was incubated at 4° C. for 2 hours. Then alkaline phosphatase-conjugated streptavidin was added to the plate. Alkaline phosphatase activity was measured by a […] assay using BlouPhos (manufactured by KPL) as a substrate. An amount of Aβ in the medium was calculated using a calibration curve separately created. EC50 of the test compound was presented as the concentration that gives 50% inhibitory activity compared to the control cells which were not treated with the compound.

EC50 [1] [nM] | melting point [°C] | Compound
≤ 50 | 160 to 161 | O=S(=O)(c1ccc(Cl)cc1)C(c1cc(F)ccc1F)c1ccncc1Cl (stereo not drawn) [Example 343, 3-Chloro-4-[(4-chlorophenylsulfonyl)-(2,5-difluorophenyl)methyl]pyridine]
≤ 50 | 180 to 181 | O=S(=O)(c1ccc(Cl)cc1)C(c1cc(F)ccc1F)c1cc(N2CCOCC2)ncc1Cl (stereo not drawn) [Example 347, 4-[5-Chloro-4-[(4-chlorophenylsulfonyl)-(2,5-difluorophenyl)methyl]pyridin-2-yl]morpholine]
≤ 50 | 146 to 148 | O=S(=O)(c1ccc(Cl)cc1)C(c1cc(F)ccc1F)c1cc(N2CCC(O)CC2)ncc1Cl (stereo not drawn) [Example 404, 5-Chloro-4-[(4-chlorophenylsulfonyl)-(2,5-difluorophenyl)methyl]-2-(4′-hydroxypiperidin-1′-yl)pyridine]
